Source: patent US8536196B2, “Substituted 1,3-dioxanes useful as PPAR modulators” (Evolva SA, priority 2007, dated 2013)

Key:
KKA^y mice = test: Glucose lowering effect in KKAy mouse model; format: in vivo
Description: (§1) 52 male KKA^y mice were obtained commercially (e.g., from Clea Japan) at an age of 6 weeks and put on a high fat diet upon arrival. Individual mice were housed in IVC Type II cages during both the acclimatization and the experimental phase. Both food (high fat diet) and water were supplied ad libitum.
(§2) Mice were randomized into treatment groups according to their 4-h fasting blood glucose.
(§3) 4 hours after the last administration, non-fasting conditions.
(§4) Blood was collected into heparin containing glass capillaries which were subsequently centrifuged in a “Haematokrit 24” centrifuge (Hettich) at 15′200×g for 10 min at room temperature to obtain the hematocrit value.
(§5) The following serum parameters were determined on a COBAS INTEGRA 800 auto analyzer (Roche Diagnostics, Switzerland) using the reagents and protocols provided by the supplier.
(§6) All measurements were made on Day 14 of administration, except for the food intake and body weight measurements that were made on Day 12.

[1] = Glucose lowering effect in KKAy mouse model; format: in vivo; conditions: male, mouse, serum; KKA^y mice, 53 mg/kg BID oral gavage 14 days, 4 hours after the last administration, average ± S.E.M.; read-out: Serum level of the compound
Description: as §1, §2, §3, §4, §5, §6

[2] = tested on: mice (FeCl3 induced femoral artery thrombosis); test: FeCl3 arterial thrombosis mouse model (occlusion time, blood flow); format: in vivo
Description: The solutions were diluted 3.3-fold in saline and 100 μl/25 g was injected.
During the experiments, a soluble potassium salt of the drug was provided, diluted in saline. Of this formulation, 100 μl/25 g was injected i.v. in the tail vein (dose of 100 mg/kg).
Aspirin is given the same way at a dose of 200 mg/kg. Clopidogrel is administered by oral gavage at a dose of 20 mg/kg at 6-7 hours prior to the experiment. The solutions were coded (except for clopidogrel) and the operator was blinded to the code. The animals assigned to each group were matched for body weight. All mice used were 8-10 weeks old males and were in a 100% Swiss genetic background.
(§7) The flow in each image is expressed as a percentage of that at the contralateral side, and data are averaged for all 120 images to determine total flow. The same analysis is performed for 10 min intervals (which gives essentially the same information as the area under the curve). […] Flow before treatment is recorded as 100%, and that in occluded arteries as 0%. At the end of the experiment, blood is collected on 0.01M citrate by heart puncture for determination of blood cell counts. Plasma is prepared by centrifugation and stored at −20° C. for determination of drug levels.
Statistical analysis for differences between two groups is performed by non-parametric Student t-test. Occlusion times >30 min were considered equal to 30 min for statistical analysis. It should be noted that this approach may result in a statistical bias, the more so because the number of experiments is not the same in the different groups. Significance is set at p<0.05.

[3] = Blood cell analysis at end of thrombosis experiment; format: in vivo, mouse
Description: as §7
Table VI summarizes the results of blood cell analysis performed on a sample taken at the end of the observation period. (Z)-6-((2S,4S,5R)-2-(2-chlorophenyl)-4-(2-hydroxyphenyl)-1,3-dioxan-5-yl)hex-4-enoic is referred to in Table VI as EV.

[4] = tested on: 1.5 μM U-46619-induced platelet aggregation (platelet rich plasma); test: TP receptor platelet aggregation - rabbit; format: cell-based, New Zealand Rabbit; conditions: Oryctolagus cuniculus, @ 0.1 mM (printed in the 30 μM column)
Text: TP Receptor Platelet Aggregation—Rabbit:
Thrombosis Research 33:277-288

PPARgamma (h) = biological target: T1, PPARgamma (h) (Homo sapiens, UniProt P37231); test: Human recombinant (E. coli) PPARgamma (h) binding assay; conditions: @ 30 μM
T1 construct: host or cells: E. coli
T1 sequence (P37231 1-505): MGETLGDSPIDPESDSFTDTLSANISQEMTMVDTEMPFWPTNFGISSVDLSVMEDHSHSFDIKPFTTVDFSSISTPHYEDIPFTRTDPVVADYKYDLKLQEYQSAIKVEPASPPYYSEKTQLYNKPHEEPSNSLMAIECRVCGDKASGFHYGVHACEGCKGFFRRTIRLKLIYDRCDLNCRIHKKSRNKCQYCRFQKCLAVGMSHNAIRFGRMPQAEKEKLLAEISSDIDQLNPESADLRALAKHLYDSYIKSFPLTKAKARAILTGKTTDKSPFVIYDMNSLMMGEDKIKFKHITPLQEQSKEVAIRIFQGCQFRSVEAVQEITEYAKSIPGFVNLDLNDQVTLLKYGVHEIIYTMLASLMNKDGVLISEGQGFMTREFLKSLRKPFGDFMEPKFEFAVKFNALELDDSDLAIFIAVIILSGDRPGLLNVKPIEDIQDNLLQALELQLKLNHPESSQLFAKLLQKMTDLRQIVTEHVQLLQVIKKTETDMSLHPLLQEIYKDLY
Description: The results are expressed as a percent of control specific binding ((measured specific binding/control specific binding)×100) obtained in the presence of the test compounds. The IC50 values (concentration causing a half-maximal inhibition of control specific binding) and Hill coefficients (nH) were determined by non-linear regression analysis of the competition curves generated with mean replicate values using Hill equation curve fitting (Y=D+[(A D)/(1+(C/C50)nH)], where Y=specific binding, D=minimum specific binding, A=maximum specific binding, C=compound concentration, C50=IC50, and nH=slope factor). This analysis was performed using a software developed at Cerep (Hill software) and validated by comparison with data generated by the commercial software SigmaPlot® 4.0 for Windows® (© 1997 by SPSS Inc.). The inhibition constants (Ki) were calculated using the Cheng Prusoff equation (Ki=IC50/(1+(L/KD)), where L=concentration of radioligand in the assay, and KD=affinity of the radioligand for the receptor).

[5] = 53 mg/kg BID oral gavage 14 days, Day 14, average ± S.E.M.
[6] = 30 mg/kg vehicle i.v., n = 4, mean ± SEM
[7] = 100 mg/kg vehicle i.v., n = 9, mean ± SEM

With `O=C(O)CC/C=C\C[C@@H]1CO[C@H](c2ccccc2Cl)O[C@@H]1c1ccccc1O` (single isomer, unassigned) [Compound B] the ALP (KKA^y mice; [5]) was 21.5 ± 1.6 dU/L, the ALT (KKA^y mice; [5]) was 5.1 ± 0.6 dU/L and the AST (KKA^y mice; [5]) was 7.7 ± 1.0 dU/L. For the same compound, the Hematocrit (KKA^y mice; [5]) was 40.1 ± 1.6%, the “Serum Glucose” value (KKA^y mice; [5]) was “decreased” and the FFA (KKA^y mice; 53 mg/kg BID oral gavage 14 days, Day 14, average ± S.E.M., listed as (Z)-6-(2S,4S,5R)-2-(2-chlorophenyl)-4-(2-hydroxyphenyl)-1,3-dioxan-5-yl(hex-4-e, 53 mg/kg)) was “slightly decreased”. The “Food Intake” value (KKA^y mice; 53 mg/kg BID oral gavage, Day 12, average ± S.E.M.) was 5.0 ± 0.6 g/day, the concentration at 4 h [1] was 0.161 ± 0.06 µg/mL and the occlusion time ([2]; 30 mg/kg in vehicle (DMSO/PEG 400) i.v.) was “slightly prolongs the occlusion time as compared to aspirin (p=0.024), but has no effect as compared to vehicle”. For the same compound, the total blood flow ([2]; 30 mg/kg in vehicle i.v.) was “no effect”, the “blood flow, time window 0-10 min” value ([2]; 100 mg/kg in vehicle i.v.) was “significantly higher flow as compared to aspirin (p=0.0002) but not as compared to vehicle only (p=0.11)” and the total blood flow ([2]; 100 mg/kg in vehicle i.v.) was “improved total blood flow as compared to aspirin (p=0.055), but not as compared to vehicle (p=0.45)”. For the same compound, the Hematocrit [3, 6] was 62 ± 7.3%, the Hemoglobin [3, 6] was 15 ± 0.28 g/dL and the Lymphocytes [3, 6] was 42 ± 4.7%. For the same compound, the Neutrophils [3, 6] was 56 ± 5.3%, the Platelets [3, 6] was 1020 ± 89 ×10^3/μl and the Red blood cells [3, 6] was 9.1 ± 0.26 ×10^6/μl. The White blood cells [3, 6] was 0.95 ± 0.17 ×10^3/μl, the Hematocrit [3, 7] was 70 ± 3.5% and the Hemoglobin [3, 7] was 15 ± 0.30 g/dL. For the same compound, the Lymphocytes [3, 7] was 58 ± 11%, the Neutrophils [3, 7] was 34 ± 12% and the Platelets [3, 7] was 895 ± 46 ×10^3/μl. The Red blood cells [3, 7] was 9.2 ± 0.17 ×10^6/μl and the White blood cells [3, 7] was 1.5 ± 0.46 ×10^3/μl.

With `O=C(O)CC/C=C\C[C@H]1COC(c2ccccc2Cl)O[C@H]1c1ccccc1O` (single isomer, unassigned) [Compound A] the inhibition at 100 µM [4] was 15% and the “PPARgamma binding @ 30 μM” value (PPARgamma (h)) was “no binding”.
